# Measurements published in patent US20190231822A1, “METHODS OF REDUCING CHRONIC GRAFT-VERSUS-HOST DISEASE” (Regents of the University of Minnesota, priority 2016, published 2019).
# System: cGVHD
# Assay: cGVHD prevention or reversal by an iNKT agonist
# Format: in vivo
# Conditions: intravascular administration
smiles,measurement,value
CCCCCCCCCCCCCCCCCCCCCCCCCC(=O)N[C@@H](CO[C@H]1O[C@H](CO)[C@H](O)[C@H](O)[C@H]1O)[C@H](O)[C@H](O)CCCCCCCCCCCCCC [alpha-galactosylceramide],prevention or reversal of cGVHD,able to prevent or reverse cGVHD
